Assay results from ChEMBL document CHEMBL1201862, “PubChem BioAssay data set” (2004).
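Following 48 hours of exposure in 96-well plates, responses at five concentrations were used to interpolate endpoints linearly. The concentration for 50% growth inhibition is given as GI50.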 The source made the active and inactive calls. Rule as the data show it: active = GI50 up to about 1.1 µM and inactive = higher.

Legend:
Test in all cases: NCI-60 cell line screen, 48 h
SK-MEL-2 = test system: SK-MEL-2
BT-549 = test system: BT-549
SN12C = test system: SN12C
HOP-62 = test system: HOP-62
OVCAR-4 = test system: OVCAR-4
A498 = test system: A498
UACC-62 = test system: UACC-62
HL-60 = test system: HL-60
SW-620 = test system: SW-620
M14 = test system: M14
COLO 205 = test system: COLO 205
UACC-257 = test system: UACC-257
SNB-19 = test system: SNB-19
KM12 = test system: KM12
T47D = test system: T47D
A549 = test system: A549
SNB-75 = test system: SNB-75
SF-295 = test system: SF-295
MDA-N = test system: MDA-N
OVCAR-3 = test system: OVCAR-3
NCI-H522 = test system: NCI-H522
U-251 = test system: U-251
NCI/ADR-RES = test system: NCI/ADR-RES
DU-145 = test system: DU-145
K562 = test system: K562
LOX IMVI = test system: LOX IMVI
OVCAR-5 = test system: OVCAR-5
Malme-3M = test system: Malme-3M
MCF7 = test system: MCF7
ACHN = test system: ACHN
SR = test system: SR
NCI-H226 = test system: NCI-H226
IGROV-1 = test system: IGROV-1
Hs-578T = test system: Hs-578T
MOLT-4 = test system: MOLT-4
MDA-MB-231 = test system: MDA-MB-231
HOP-92 = test system: HOP-92
HCT-116 = test system: HCT-116
CCRF-CEM = test system: CCRF-CEM
TK-10 = test system: TK-10
SF-539 = test system: SF-539
NCI-H23 = test system: NCI-H23
PC-3 = test system: PC-3
EKVX = test system: EKVX
RXF 393 = test system: RXF 393
SK-OV-3 = test system: SK-OV-3
HT-29 = test system: HT-29
NCI-H460 = test system: NCI-H460
MDA-MB-435 = test system: MDA-MB-435
SK-MEL-5 = test system: SK-MEL-5
HCT-15 = test system: HCT-15
CAKI-1 = test system: CAKI-1
RPMI-8226 = test system: RPMI-8226
OVCAR-8 = test system: OVCAR-8
786-0 = test system: 786-0
SF-268 = test system: SF-268
UO-31 = test system: UO-31
SK-MEL-28 = test system: SK-MEL-28
HCC 2998 = test system: HCC 2998

O=[N+]([O-])c1ccc(CSCc2ccc(Cl)cc2)cc1
GI50 (SK-MEL-2): > 100 µM (inactive)
GI50 (BT-549): > 100 µM (inactive)
GI50 (SN12C): > 100 µM (inactive)
GI50 (HOP-62): > 100 µM (inactive)
GI50 (OVCAR-4): > 100 µM (inactive)
GI50 (A498): > 100 µM (inactive)
GI50 (UACC-62): > 100 µM (inactive)
GI50 (HL-60): 33.1 µM (inactive)
GI50 (SW-620): > 100 µM (inactive)
GI50 (M14): > 100 µM (inactive)
GI50 (COLO 205): > 100 µM (inactive)
GI50 (UACC-257): > 100 µM (inactive)
GI50 (SNB-19): > 100 µM (inactive)
GI50 (KM12): > 100 µM (inactive)
GI50 (T47D): 74.3 µM (inactive)
GI50 (A549): > 100 µM (inactive)
GI50 (SNB-75): > 100 µM (inactive)
GI50 (SF-295): > 100 µM (inactive)
GI50 (MDA-N): > 100 µM (inactive)
GI50 (OVCAR-3): > 100 µM (inactive)
GI50 (NCI-H522): 20 µM (inactive)
GI50 (U-251): > 100 µM (inactive)
GI50 (NCI/ADR-RES): > 100 µM (inactive)
GI50 (DU-145): > 100 µM (inactive)
GI50 (K562): > 100 µM (inactive)
GI50 (LOX IMVI): > 100 µM (inactive)
GI50 (OVCAR-5): > 100 µM (inactive)
GI50 (Malme-3M): > 100 µM (inactive)
GI50 (MCF7): > 100 µM (inactive)
GI50 (ACHN): > 100 µM (inactive)
GI50 (SR): 23.8 µM (inactive)
GI50 (NCI-H226): > 100 µM (inactive)
GI50 (IGROV-1): > 100 µM (inactive)
GI50 (Hs-578T): > 100 µM (inactive)
GI50 (MOLT-4): 17.5 µM (inactive)
GI50 (MDA-MB-231): > 100 µM (inactive)
GI50 (HOP-92): 47.8 µM (inactive)
GI50 (HCT-116): 92.3 µM (inactive)
GI50 (CCRF-CEM): 14.5 µM (inactive)
GI50 (TK-10): > 100 µM (inactive)
GI50 (SF-539): > 100 µM (inactive)
GI50 (NCI-H23): > 100 µM (inactive)
GI50 (PC-3): > 100 µM (inactive)
GI50 (EKVX): > 100 µM (inactive)
GI50 (RXF 393): > 100 µM (inactive)
GI50 (SK-OV-3): > 100 µM (inactive)
GI50 (HT-29): 78.3 µM (inactive)
GI50 (NCI-H460): > 100 µM (inactive)
GI50 (MDA-MB-435): > 100 µM (inactive)
GI50 (SK-MEL-5): > 100 µM (inactive)
GI50 (HCT-15): > 100 µM
GI50 (CAKI-1): > 100 µM (inactive)
GI50 (RPMI-8226): 55.7 µM (inactive)
GI50 (OVCAR-8): > 100 µM (inactive)
GI50 (786-0): > 100 µM (inactive)
GI50 (SF-268): > 100 µM (inactive)
GI50 (UO-31): > 100 µM (inactive)
GI50 (SK-MEL-28): > 100 µM (inactive)

Nc1ccn(C2OC(CO[PH](=O)OC3C(CO[PH](=O)OC4C(CO[PH](=O)OC5C(CO[PH](=O)OC6C(CO[PH](=O)OC7C(CO[PH](=O)OC8C(CO[PH](=O)OC9C(CO[PH](=O)OC%10C(CO[PH](=O)OC%11C(CO)OC(n%12ccc(N)nc%12=O)C%11(F)F)OC(n%11ccc(N)nc%11=O)C%10(F)F)OC(n%10ccc(N)nc%10=O)C9(F)F)OC(n9ccc(N)nc9=O)C8(F)F)OC(n8ccc(N)nc8=O)C7(F)F)OC(n7ccc(N)nc7=O)C6(F)F)OC(n6ccc(N)nc6=O)C5(F)F)OC(n5ccc(N)nc5=O)C4(F)F)OC(n4ccc(N)nc4=O)C3(F)F)C(O)C2(F)F)c(=O)n1 (configuration not stated)
GI50 (SK-MEL-2): 2.18 µM (inactive)
GI50 (BT-549): 0.0661 µM (active)
GI50 (SN12C): 0.0661 µM (active)
GI50 (HOP-62): 0.0581 µM (active)
GI50 (OVCAR-4): 10 µM (inactive)
GI50 (A498): 0.114 µM (active)
GI50 (UACC-62): 0.0466 µM (active)
GI50 (HL-60): 0.0193 µM (active)
GI50 (SW-620): 0.577 µM (active)
GI50 (COLO 205): 0.741 µM (active)
GI50 (UACC-257): 0.34 µM (active)
GI50 (SNB-19): 0.0259 µM (active)
GI50 (KM12): 5.38 µM (inactive)
GI50 (T47D): 0.553 µM (active)
GI50 (A549): 0.016 µM (active)
GI50 (SNB-75): 0.0254 µM (active)
GI50 (SF-295): 0.0697 µM (active)
GI50 (MDA-N): 0.0442 µM (active)
GI50 (OVCAR-3): 17.1 µM (inactive)
GI50 (NCI-H522): 1.43 µM (inactive)
GI50 (U-251): 0.0373 µM (active)
GI50 (NCI/ADR-RES): 0.051 µM (active)
GI50 (DU-145): 0.0109 µM (active)
GI50 (K562): 1.49 µM (inactive)
GI50 (LOX IMVI): 0.0418 µM (active)
GI50 (OVCAR-5): 0.111 µM (active)
GI50 (Malme-3M): 0.391 µM (active)
GI50 (MCF7): 0.0103 µM (active)
GI50 (ACHN): 0.00533 µM (active)
GI50 (SR): 0.0183 µM (active)
GI50 (NCI-H226): 9.44 µM (inactive)
GI50 (IGROV-1): 0.912 µM (active)
GI50 (HCC 2998): 80.5 nM (active)
GI50 (Hs-578T): 2.22 µM (inactive)
GI50 (MOLT-4): 0.0333 µM (active)
GI50 (MDA-MB-231): 1.4 µM (inactive)
GI50 (HOP-92): 0.155 µM (active)
GI50 (HCT-116): 0.0134 µM (active)
GI50 (CCRF-CEM): 0.0172 µM (active)
GI50 (TK-10): 3.03 µM (inactive)
GI50 (SF-539): 0.0112 µM (active)
GI50 (NCI-H23): 0.0423 µM (active)
GI50 (PC-3): 5.5 µM (inactive)
GI50 (EKVX): 5.46 µM (inactive)
GI50 (SK-OV-3): 0.979 µM (active)
GI50 (HT-29): 0.112 µM (active)
GI50 (NCI-H460): 0.0208 µM (active)
GI50 (MDA-MB-435): 0.0526 µM (active)
GI50 (SK-MEL-5): 1.73 µM (inactive)
GI50 (HCT-15): 0.442 µM
GI50 (CAKI-1): 0.0316 µM (active)
GI50 (RPMI-8226): 0.0582 µM (active)
GI50 (OVCAR-8): 0.0156 µM (active)
GI50 (SF-268): 0.0285 µM (active)
GI50 (UO-31): 0.0213 µM (active)
GI50 (SK-MEL-28): 0.594 µM (active)

CN(C)Cc1cc(C(F)(F)F)ccc1C(O)(c1ccccc1)c1ccccc1
GI50 (SK-MEL-2): 18.3 µM (inactive)
GI50 (BT-549): > 10 µM (inactive)
GI50 (SN12C): 15.4 µM (inactive)
GI50 (HOP-62): 16.3 µM (inactive)
GI50 (OVCAR-4): 16.4 µM (inactive)
GI50 (A498): 11.7 µM (inactive)
GI50 (UACC-62): 13.2 µM (inactive)
GI50 (HL-60): 7.76 µM (inactive)
GI50 (SW-620): 17.3 µM (inactive)
GI50 (M14): 12.4 µM (inactive)
GI50 (COLO 205): 8.05 µM (inactive)
GI50 (UACC-257): 11.6 µM (inactive)
GI50 (SNB-19): 16.7 µM (inactive)
GI50 (KM12): 16.9 µM (inactive)
GI50 (T47D): 18.2 µM (inactive)
GI50 (A549): 15 µM (inactive)
GI50 (SNB-75): 8.55 µM (inactive)
GI50 (SF-295): 17.9 µM (inactive)
GI50 (MDA-N): 14.4 µM (inactive)
GI50 (OVCAR-3): 27.8 µM (inactive)
GI50 (NCI-H522): 15.6 µM (inactive)
GI50 (U-251): 11.8 µM (inactive)
GI50 (NCI/ADR-RES): 15.2 µM (inactive)
GI50 (DU-145): 26.7 µM (inactive)
GI50 (K562): 6.9 µM (inactive)
GI50 (LOX IMVI): 15.8 µM (inactive)
GI50 (OVCAR-5): 14.4 µM (inactive)
GI50 (Malme-3M): 15.2 µM (inactive)
GI50 (MCF7): 14.3 µM (inactive)
GI50 (ACHN): 16.3 µM (inactive)
GI50 (SR): 12.6 µM (inactive)
GI50 (NCI-H226): 15.1 µM (inactive)
GI50 (IGROV-1): 15.9 µM (inactive)
GI50 (Hs-578T): 26.9 µM (inactive)
GI50 (MOLT-4): 15.7 µM (inactive)
GI50 (MDA-MB-231): 11.9 µM (inactive)
GI50 (HOP-92): 13.6 µM (inactive)
GI50 (HCT-116): 13 µM (inactive)
GI50 (CCRF-CEM): 6.92 µM (inactive)
GI50 (TK-10): 17.2 µM (inactive)
GI50 (SF-539): 17 µM (inactive)
GI50 (NCI-H23): 26.2 µM (inactive)
GI50 (PC-3): 14.1 µM (inactive)
GI50 (EKVX): 15.4 µM (inactive)
GI50 (RXF 393): 11.8 µM (inactive)
GI50 (SK-OV-3): 17.4 µM (inactive)
GI50 (HT-29): 5.05 µM (inactive)
GI50 (NCI-H460): 14.6 µM (inactive)
GI50 (MDA-MB-435): 18.8 µM (inactive)
GI50 (SK-MEL-5): 14.1 µM (inactive)
GI50 (HCT-15): 14.7 µM
GI50 (CAKI-1): 12.8 µM (inactive)
GI50 (RPMI-8226): 5.51 µM (inactive)
GI50 (OVCAR-8): 17.9 µM (inactive)
GI50 (786-0): 14.2 µM (inactive)
GI50 (SF-268): 15.3 µM (inactive)
GI50 (UO-31): 12.1 µM (inactive)
GI50 (SK-MEL-28): 14.9 µM (inactive)
